We go through five molecules from US20220361500A1, “STRIGOLACTONE DERIVATIVES AS PLANT GROWTH REGULATOR COMPOUNDS” (SYNGENTA CROP PROTECTION AG, priority 2020, published 2022).

In the assay the test system is corn leaf discs (variety Multitop). Nature of the assay: Dark induced senescence of corn leaf. Conditions: Zea mays, foliar, 192 h, 100 μM-0.0001 μM, 0.5% DMSO, 23° C., 8 days, image analysis, read-out: IC50 (concentration at which 50% senescence was achieved), dark induced senescence of corn leaf. The method, then: It is known that strigolactones regulate (accelerate) leaf senescence, potentially through D14 receptor signaling. Corn plants of variety Multitop were grown in a greenhouse with relative 75% humidity and at 23-25° C. for 6 weeks. 1.4 cm diameter leaf discs were placed into 24-well plates containing test compounds in a concentration gradient (100 μM-0.0001 μM) at a final concentration of 0.5% DMSO. Each concentration was tested in 12 replicates. Plates were sealed with seal foil. The foil was pierced to provide gas exchange in each well. The plates were placed into the completely dark climatic chamber. Plates were incubated in the chamber with 75% humidity and at 23° C. for 8 days. On days 0, 5, 6, 7 and 8 photographs were taken of each plate, and image analysis conducted with a macro developed using the ImageJ software. The image analysis was used to determine the concentration at which 50% senescence was achieved (IC50), see Table 4. The lower the value, the higher senescence induction potency.

Structures are written as SMILES.

For `CC1=CC(O/C=C2/C(=O)OC3Oc4ccccc4C23)OC1=O` (centres unmarked) [Compound I-1, (1E)-1-[(4-methyl-5-oxo-2H-furan-2-yl)oxymethylene]-3a,8b-dihydrofuro[2,3-b]benzofuran-2-one], the IC50 was determined as 30 nM.
The figure for `CC1=C(C)C(O/C=C2/C(=O)OC3Oc4ccccc4C23)OC1=O` (centres unmarked) [Compound I-2, (1E)-1-[(3,4-dimethyl-5-oxo-2H-furan-2-yl)oxymethylene]-3a,8b-dihydrofuro[2,3-b]benzofuran-2-one] is 15 nM; for `CC1=CC(O/C=C2/C(=O)OC3C2c2ccccc2[S+]3[O-])OC1=O` (centres unmarked) [Compound I-13, (1E)-1-[(4-methyl-5-oxo-2H-furan-2-yl)oxymethylene]-4-oxo-3a,8b-dihydrobenzothiopheno[2,3-b]furan-2-one] it is 15 nM.
With `CC1=C(C)C(O/C=C2/C(=O)OC3Sc4ccccc4C23)OC1=O` (centres unmarked) [Compound I-8, (1E)-1-[(3,4-dimethyl-5-oxo-2H-furan-2-yl)oxymethylene]-3a,8b-dihydrobenzothiopheno[2,3-b]furan-2-one] the figure was 40 nM; with `CC1=CC(O/C=C2/C(=O)OC3COc4ccccc4C23)OC1=O` (centres unmarked) [Compound I-31, (1E)-1-[(4-methyl-5-oxo-2H-furan-2-yl)oxymethylene]-4,9b-dihydro-3aH-furo[2,3-c]chromen-2-one], 30 nM.
